“Also recorded” adds a separate entry of the source.
Experiments:
[1] = target: T1, CYP3A5 (Homo sapiens, UniProt P20815); test: CW X-band EPR spectroscopy of CYP3A5-ligand complexes; details: CYP 200 μM, compound 400 μM, 10 K
[2] = target: T2, CYP3A4 (Homo sapiens, UniProt P08684); test: CW X-band EPR spectroscopy of CYP3A4-ligand complexes; details: CYP 200 μM, compound 400 μM, 10 K
[3] = target: T1, CYP3A5; test: UV-visible absorbance titration with purified recombinant CYP3A5; details: UV-visible Soret band shift
[4] = tested on: CYP3A4; test: Western blot of CYP3A4 protein level after compound treatment; details: 1 μM compound, 24 h treatment
[5] = target: T2, CYP3A4; test: P450-Glo luminescence biochemical inhibition assay; details: compound at 1.8 μM, DMSO 0.1%
[6] = target: T1, CYP3A5; test: CYP3A5 activity in AsPC-1 cells by 1-hydroxymidazolam formation; assay type: cell-based; details: 5 μM midazolam, 24 h
[7] = target: T2, CYP3A4; test: Cytochrome P450 inhibition panel in pooled human liver microsomes; assay type: biochemical; details: 1.8 μM clobetasol
[8] = tested on: CYP1A2, 2B6, 2C8, 2C9, 2C19, and 2D6; test: as above; assay type: biochemical; details: 1.8 μM clobetasol, own probe substrate per CYP

SMILES	Heme iron spin state of CYP3A5 complex (EPR) [1]	Heme iron spin state of CYP3A4 complex (EPR) [2]	Spectral shift type on titration with CYP3A5 [3]	Effect on CYP3A4 protein level (Western blot) [4]	Inhibition of CYP3A4 [5]	Inhibition of CYP3A5 activity (1OH-MDZ formation) ([6]; CYP3A5 overexpressed (+Dox) in WT or 3A5-/- AsPC-1 cells)	Inhibition of CYP3A5 activity (1OH-MDZ formation) compared with ketoconazole ([6]; parental AsPC-1 (WT) cells, dose-response)	Inhibition of CYP3A4-mediated catalysis, substrate midazolam [7]	Inhibition of CYP3A4-mediated catalysis, substrate testosterone [7]	Inhibition of other major human CYPs [8]
Cc1ncc2n1-c1ccc(Cl)cc1C(c1ccccc1F)=NC2 [midazolam, Midazolam]	five-coordinate HS ferric heme iron state	an HS signal was induced	typical type I CYP spectral shift	–	–	–	–	–	–	–
CC(=O)N1CCN(c2ccc(OCC3COC(Cn4ccnc4)(c4ccc(Cl)cc4Cl)O3)cc2)CC1 (stereo not shown) [ketoconazole, Ketoconazole]	–	–	–	increased CYP3A4 protein expression	–	–	–	–	–	–
CCC(=O)O[C@]1(C(=O)CCl)[C@@H](C)C[C@H]2[C@@H]3CCC4=CC(=O)C=C[C@]4(C)[C@@]3(F)[C@@H](O)C[C@@]21C [clobetasol, Clobetasol propionate]	five-coordinate HS ferric heme iron state	no new HS formation	–	did not increase the protein level of CYP3A4	no inhibition	inhibited the CYP3A5 activity	slightly more potent	uninhibited	uninhibited	little or no inhibition; also recorded: no significant inhibition

Reference: PMC7087482 (Journal of medicinal chemistry, 2020)
